Measured values from ChEMBL document CHEMBL3352322, “Synthesis and biological evaluation of 3-phenethylazetidine derivatives as triple reuptake inhibitors” (Bioorg Med Chem Lett, 2014).

Legend:
[1] = biological target: T1, Sodium-dependent noradrenaline transporter (Homo sapiens, UniProt P23975); test: Ratio of duloxetine IC50 to compound IC50 for norepinephrine reuptake at human NET expressed in HEK293 cells at 0.1 uM after 15 mins by fluorescence neurotransmitter transporter assay; format: cell-based
[2] = biological target: T1, Sodium-dependent noradrenaline transporter; test: Ratio of venlafaxine IC50 to compound IC50 for norepinephrine reuptake at human NET expressed in HEK293 cells at 0.1 uM after 15 mins by fluorescence neurotransmitter transporter assay; format: cell-based
[3] = biological target: T2, Sodium-dependent serotonin transporter (Homo sapiens, UniProt P31645); test: Ratio of duloxetine IC50 to compound IC50 for serotonin reuptake at human SERT expressed in HEK293 cells at 0.1 uM after 15 mins by fluorescence neurotransmitter transporter assay; format: cell-based
Target sequence in this assay (P31645 whole entry, looked up): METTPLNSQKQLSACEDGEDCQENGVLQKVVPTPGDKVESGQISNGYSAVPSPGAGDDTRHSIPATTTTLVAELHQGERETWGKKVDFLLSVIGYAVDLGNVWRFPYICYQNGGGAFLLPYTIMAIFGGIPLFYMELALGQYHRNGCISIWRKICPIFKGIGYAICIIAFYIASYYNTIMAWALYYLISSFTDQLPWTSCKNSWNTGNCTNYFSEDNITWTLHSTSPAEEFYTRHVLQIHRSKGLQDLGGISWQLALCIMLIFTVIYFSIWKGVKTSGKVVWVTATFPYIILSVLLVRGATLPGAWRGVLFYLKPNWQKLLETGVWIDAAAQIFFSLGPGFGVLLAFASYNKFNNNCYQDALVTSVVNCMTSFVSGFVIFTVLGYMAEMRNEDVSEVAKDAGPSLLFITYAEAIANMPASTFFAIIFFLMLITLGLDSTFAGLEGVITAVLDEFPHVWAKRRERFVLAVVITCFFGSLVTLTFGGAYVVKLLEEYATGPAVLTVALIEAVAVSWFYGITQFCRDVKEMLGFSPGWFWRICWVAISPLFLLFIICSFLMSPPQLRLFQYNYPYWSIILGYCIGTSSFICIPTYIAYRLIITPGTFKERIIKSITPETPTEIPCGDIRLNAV

[4] = biological target: T2, Sodium-dependent serotonin transporter; test: Ratio of venlafaxine IC50 to compound IC50 for serotonin reuptake at human SERT expressed in HEK293 cells at 0.1 uM after 15 mins by fluorescence neurotransmitter transporter assay; format: cell-based
Target sequence in this assay (P31645 whole entry, looked up): as above

[5] = biological target: T2, Sodium-dependent serotonin transporter; format: cell-based, HEK293
Target sequence in this assay (P31645 whole entry): as the sequence (P31645 whole entry, looked up) above

[6] = Stability in human liver microsomes assessed as compound remaining at 1 uM after 30 mins by LC/MS analysis; format: ADME; details: read-out: Stability
[7] = biological target: Voltage-gated inwardly rectifying potassium channel KCNH2 (Homo sapiens, UniProt Q12809); test: Inhibition of human ERG expressed in CHO-K1 cells by patch-clamp electrophysiology method; format: cell-based
[8] = biological target: T1, Sodium-dependent noradrenaline transporter
[9] = biological target: Sodium-dependent dopamine transporter (Homo sapiens, UniProt Q01959)
[10] = biological target: T3, Cytochrome P450 1A2 (Homo sapiens, UniProt P05177)
T3 sequence (P05177 whole entry): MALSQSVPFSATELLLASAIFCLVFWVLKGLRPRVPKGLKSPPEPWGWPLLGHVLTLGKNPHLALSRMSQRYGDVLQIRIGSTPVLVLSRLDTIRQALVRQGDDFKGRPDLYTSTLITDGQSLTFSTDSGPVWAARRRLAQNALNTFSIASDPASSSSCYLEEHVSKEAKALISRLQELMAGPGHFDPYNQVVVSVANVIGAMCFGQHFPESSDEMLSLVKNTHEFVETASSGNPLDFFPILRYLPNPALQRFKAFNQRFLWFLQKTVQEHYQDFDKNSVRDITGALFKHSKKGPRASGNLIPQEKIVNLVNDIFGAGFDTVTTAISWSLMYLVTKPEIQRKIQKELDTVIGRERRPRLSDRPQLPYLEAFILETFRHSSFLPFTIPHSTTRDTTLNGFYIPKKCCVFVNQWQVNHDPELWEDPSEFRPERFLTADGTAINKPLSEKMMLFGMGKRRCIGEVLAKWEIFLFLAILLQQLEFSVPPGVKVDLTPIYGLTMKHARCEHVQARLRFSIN

[11] = biological target: Cytochrome P450 2D6 (Homo sapiens, UniProt P10635)
[12] = biological target: Cytochrome P450 2C9 (Homo sapiens, UniProt P11712)
[13] = biological target: Cytochrome P450 3A4 (Homo sapiens, UniProt P08684)
[14] = biological target: Cytochrome P450 2C19 (Homo sapiens, UniProt P33261)
[15] = biological target: T2, Sodium-dependent serotonin transporter; details: HEK293, at 0.1 µM
Target sequence in this assay (P31645 whole entry, looked up): as the sequence (P31645 whole entry, looked up) above

[16] = biological target: T2, Sodium-dependent serotonin transporter; details: HEK293, at 1 µM
Target sequence in this assay (P31645 whole entry, looked up): as the sequence (P31645 whole entry, looked up) above

[17] = biological target: T2, Sodium-dependent serotonin transporter; details: HEK293, at 10 µM
Target sequence in this assay (P31645 whole entry, looked up): as the sequence (P31645 whole entry, looked up) above

[18] = biological target: T4, CYP1A2 (Homo sapiens, UniProt P05177); test: in vitro; details: recombinant CYP1A2
T4 sequence (P05177 whole entry): T3 sequence (P05177 whole entry)

[19] = biological target: CYP2D6 (Homo sapiens, UniProt P10635); test: in vitro; details: recombinant CYP2D6
[20] = biological target: CYP2C9 (Homo sapiens, UniProt P11712); test: in vitro; details: recombinant CYP2C9
[21] = biological target: CYP3A4 (Homo sapiens, UniProt P08684); test: in vitro; details: recombinant CYP3A4
[22] = biological target: CYP2C19 (Homo sapiens, UniProt P33261); test: in vitro; details: recombinant CYP2C19

Chain of Cytochrome P450 3A4 (P08684 whole entry): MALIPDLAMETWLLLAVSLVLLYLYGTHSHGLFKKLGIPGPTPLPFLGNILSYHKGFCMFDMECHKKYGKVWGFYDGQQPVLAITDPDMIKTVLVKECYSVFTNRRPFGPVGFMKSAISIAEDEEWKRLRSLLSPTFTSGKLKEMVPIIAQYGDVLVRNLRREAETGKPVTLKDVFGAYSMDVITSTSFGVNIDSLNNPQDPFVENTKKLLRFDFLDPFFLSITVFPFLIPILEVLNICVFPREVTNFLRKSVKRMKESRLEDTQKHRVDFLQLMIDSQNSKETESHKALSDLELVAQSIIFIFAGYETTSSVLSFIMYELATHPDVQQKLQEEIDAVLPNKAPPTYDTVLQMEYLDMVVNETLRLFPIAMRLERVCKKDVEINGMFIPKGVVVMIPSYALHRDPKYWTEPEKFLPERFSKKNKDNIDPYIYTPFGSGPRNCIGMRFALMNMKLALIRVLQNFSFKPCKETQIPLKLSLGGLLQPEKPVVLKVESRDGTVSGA
Chain of CYP3A4 (P08684 whole entry): as above
Chain of Cytochrome P450 2C9 (P11712 whole entry): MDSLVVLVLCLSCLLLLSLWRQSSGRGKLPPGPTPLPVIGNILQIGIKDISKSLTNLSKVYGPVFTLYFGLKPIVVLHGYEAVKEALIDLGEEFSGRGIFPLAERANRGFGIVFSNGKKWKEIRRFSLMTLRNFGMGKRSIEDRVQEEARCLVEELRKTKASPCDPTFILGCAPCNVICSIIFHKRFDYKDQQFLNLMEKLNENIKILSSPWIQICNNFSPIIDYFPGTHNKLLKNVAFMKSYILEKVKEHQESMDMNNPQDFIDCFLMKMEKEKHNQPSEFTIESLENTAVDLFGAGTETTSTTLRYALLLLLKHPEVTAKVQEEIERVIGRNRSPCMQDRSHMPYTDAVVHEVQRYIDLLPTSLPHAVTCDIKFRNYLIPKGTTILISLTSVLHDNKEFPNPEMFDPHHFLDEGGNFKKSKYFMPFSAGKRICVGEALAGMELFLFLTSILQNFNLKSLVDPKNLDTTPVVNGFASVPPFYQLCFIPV
Chain of CYP2C9 (P11712 whole entry): as above
Chain of CYP2D6 (P10635 whole entry): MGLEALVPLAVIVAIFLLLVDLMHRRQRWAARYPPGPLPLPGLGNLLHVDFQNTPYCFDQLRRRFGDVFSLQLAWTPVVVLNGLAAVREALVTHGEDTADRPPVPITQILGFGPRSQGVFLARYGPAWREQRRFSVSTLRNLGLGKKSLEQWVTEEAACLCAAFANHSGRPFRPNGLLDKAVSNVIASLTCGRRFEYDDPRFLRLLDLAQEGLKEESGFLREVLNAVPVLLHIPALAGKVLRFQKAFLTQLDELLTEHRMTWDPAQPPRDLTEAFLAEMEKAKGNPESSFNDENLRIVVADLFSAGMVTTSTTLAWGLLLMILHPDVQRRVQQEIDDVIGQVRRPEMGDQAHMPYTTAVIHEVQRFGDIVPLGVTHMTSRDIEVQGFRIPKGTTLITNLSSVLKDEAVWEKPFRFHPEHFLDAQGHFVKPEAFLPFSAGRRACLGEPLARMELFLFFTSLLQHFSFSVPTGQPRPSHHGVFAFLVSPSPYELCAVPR
Chain of Cytochrome P450 2D6 (P10635 whole entry): as above
Chain of Sodium-dependent dopamine transporter (Q01959 whole entry): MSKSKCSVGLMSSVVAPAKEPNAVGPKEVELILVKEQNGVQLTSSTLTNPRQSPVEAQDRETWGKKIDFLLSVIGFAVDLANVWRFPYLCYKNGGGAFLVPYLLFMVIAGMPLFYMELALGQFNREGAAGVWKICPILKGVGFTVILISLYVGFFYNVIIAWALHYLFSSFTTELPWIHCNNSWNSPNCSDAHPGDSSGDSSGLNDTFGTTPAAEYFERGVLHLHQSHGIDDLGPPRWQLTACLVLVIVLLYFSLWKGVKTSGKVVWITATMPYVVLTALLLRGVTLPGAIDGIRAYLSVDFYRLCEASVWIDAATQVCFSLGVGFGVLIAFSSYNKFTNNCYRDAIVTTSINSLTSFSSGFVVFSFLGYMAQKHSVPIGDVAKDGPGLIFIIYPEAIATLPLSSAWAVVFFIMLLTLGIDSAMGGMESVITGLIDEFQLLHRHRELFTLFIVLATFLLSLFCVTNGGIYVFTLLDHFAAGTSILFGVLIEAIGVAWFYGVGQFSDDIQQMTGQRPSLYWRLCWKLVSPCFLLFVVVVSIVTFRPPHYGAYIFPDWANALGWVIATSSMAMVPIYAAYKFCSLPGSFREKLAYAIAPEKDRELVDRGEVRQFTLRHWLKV
T1 sequence (P23975 whole entry): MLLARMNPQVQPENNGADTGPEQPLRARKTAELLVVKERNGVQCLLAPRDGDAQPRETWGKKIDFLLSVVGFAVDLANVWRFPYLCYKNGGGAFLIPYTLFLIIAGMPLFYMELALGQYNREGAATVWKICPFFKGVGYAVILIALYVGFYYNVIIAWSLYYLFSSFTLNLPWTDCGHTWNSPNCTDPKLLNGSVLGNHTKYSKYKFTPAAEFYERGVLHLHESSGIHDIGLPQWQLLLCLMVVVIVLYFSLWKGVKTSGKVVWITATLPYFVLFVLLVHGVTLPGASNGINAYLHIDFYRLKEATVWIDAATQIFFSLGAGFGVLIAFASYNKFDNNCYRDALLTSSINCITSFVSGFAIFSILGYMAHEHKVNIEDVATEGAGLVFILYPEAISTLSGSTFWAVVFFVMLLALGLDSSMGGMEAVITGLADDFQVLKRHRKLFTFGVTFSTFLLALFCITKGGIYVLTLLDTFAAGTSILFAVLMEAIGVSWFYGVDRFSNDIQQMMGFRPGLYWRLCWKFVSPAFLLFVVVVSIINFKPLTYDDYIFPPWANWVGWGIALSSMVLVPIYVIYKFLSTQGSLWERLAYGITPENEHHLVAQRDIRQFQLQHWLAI

Compound	Ratio IC50 [1]	Ratio IC50 [2]	Ratio IC50 [3]	Ratio IC50 [4]	IC50 [5] [µM]	remaining at 0.5 h, 1 µM [6] [%]	IC50 [8] [µM]	IC50 [9] [µM]	IC50 [10] [µM]	IC50 [11] [µM]	IC50 [12] [µM]	IC50 [13] [µM]	IC50 [14] [µM]	inhibition [15] [%]	inhibition [16] [%]	inhibition [17] [%]	inhibition at 10 µM [18] [%]	inhibition at 10 µM [19] [%]	inhibition at 10 µM [20] [%]	inhibition at 10 µM [21] [%]	also measured
Fc1cccc(OC(CC2CNC2)c2ccc(Cl)c(F)c2)c1 (stereo unspecified)	> 7	> 7	> 7	> 7	0.0366	73	0.0146	0.0356	13	4	3.1	0.51	0.21	98	100	100	30	13	11	11	IC50 [7]: 1.46 µM; inhibition at 10 µM [22]: 6.4%
Fc1ccc(OC(CC2CNC2)c2ccc(Cl)c(F)c2)cc1 (stereo unspecified)	> 7	> 7	> 7	> 7	0.0581	85	0.0325	0.143	19	1	2.4	0.4	1.3	72	100	100					
Fc1cc(C(CC2CNC2)Oc2cccc(Cl)c2)ccc1Cl (stereo unspecified)	> 7	> 7	> 7	> 7	0.0471	57	0.03	0.0825	15	0.53	1.1	0.6	0.25	87	100	100	40	7.9	4.2	13	inhibition at 10 µM [22]: 3.3%
Fc1cc(C(CC2CNC2)Oc2ccccc2F)ccc1Cl (stereo unspecified)	> 7	> 7	> 7	> 7	0.0463	71	0.0159	0.0639	44	8.7	2.2	0.71	0.25	77	100	100	33	9.6	12	7.2	IC50 [7]: 1.41 µM; inhibition at 10 µM [22]: 7%
